Values of other authors, collected in US10093983B2 (priority 2011, dated 2018).

Molecular target: T1, D351Y or D351E mutant ESR1 (Homo sapiens, UniProt P03372, D351Y)
T1 sequence (P03372 1-595 D351Y): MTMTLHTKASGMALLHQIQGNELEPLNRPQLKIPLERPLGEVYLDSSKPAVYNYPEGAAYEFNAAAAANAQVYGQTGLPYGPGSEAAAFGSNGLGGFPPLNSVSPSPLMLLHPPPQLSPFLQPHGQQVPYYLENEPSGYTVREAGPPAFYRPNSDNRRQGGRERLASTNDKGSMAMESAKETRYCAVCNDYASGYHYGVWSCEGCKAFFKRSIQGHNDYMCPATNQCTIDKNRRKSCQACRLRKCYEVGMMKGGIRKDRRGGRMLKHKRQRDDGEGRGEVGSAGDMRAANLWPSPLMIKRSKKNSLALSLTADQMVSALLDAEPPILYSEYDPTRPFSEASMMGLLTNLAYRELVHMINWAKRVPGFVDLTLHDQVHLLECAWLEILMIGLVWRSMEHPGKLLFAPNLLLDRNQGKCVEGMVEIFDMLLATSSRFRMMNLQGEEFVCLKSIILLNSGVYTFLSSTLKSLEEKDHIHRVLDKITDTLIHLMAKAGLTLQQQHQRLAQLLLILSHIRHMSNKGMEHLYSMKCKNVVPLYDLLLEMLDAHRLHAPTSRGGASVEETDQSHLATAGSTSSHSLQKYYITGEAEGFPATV

## C[C@]12CC[C@@H]3c4ccc(O)cc4C[C@@H](CCCCCCCCC[S+]([O-])CCCC(F)(F)C(F)(F)F)[C@H]3[C@@H]1CC[C@@H]2O (stereo partly shown) [fulvestrant]
  effects of the antiestrogen upon mutating D351 to tyrosine: unaffected
